According to PMC7674337, “Phylogenetic analysis of plant multi-domain SEC14-like phosphatidylinositol transfer proteins and structure–function properties of PATELLIN2” (Plant Molecular Biology, 2020):

Target: T1, PATL2 (PATELLIN2; StrepII-PATL2) (Arabidopsis thaliana, UniProt Q56ZI2)
T1 construct: full-length CDS from Col-0 root cDNA; StrepII-tagged (pET-52b(+)), E. coli BL21(DE3) pLysS; Strep-Tactin purified
T1 sequence (Q56ZI2 2-683): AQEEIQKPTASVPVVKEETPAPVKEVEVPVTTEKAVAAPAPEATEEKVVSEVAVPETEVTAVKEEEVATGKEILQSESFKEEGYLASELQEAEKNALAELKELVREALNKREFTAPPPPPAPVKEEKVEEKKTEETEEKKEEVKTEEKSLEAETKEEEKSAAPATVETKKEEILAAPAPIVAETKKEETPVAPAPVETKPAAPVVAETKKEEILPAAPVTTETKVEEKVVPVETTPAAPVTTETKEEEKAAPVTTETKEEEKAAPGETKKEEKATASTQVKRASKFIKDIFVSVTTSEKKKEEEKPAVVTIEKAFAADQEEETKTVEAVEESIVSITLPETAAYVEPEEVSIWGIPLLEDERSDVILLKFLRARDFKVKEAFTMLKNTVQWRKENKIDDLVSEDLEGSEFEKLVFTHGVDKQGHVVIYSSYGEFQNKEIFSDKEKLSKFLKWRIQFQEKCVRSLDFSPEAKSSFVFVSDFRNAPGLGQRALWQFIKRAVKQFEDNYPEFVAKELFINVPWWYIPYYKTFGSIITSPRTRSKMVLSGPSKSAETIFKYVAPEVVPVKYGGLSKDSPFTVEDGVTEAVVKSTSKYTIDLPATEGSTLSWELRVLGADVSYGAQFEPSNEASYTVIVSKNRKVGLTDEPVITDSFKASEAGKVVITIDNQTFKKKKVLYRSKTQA
Assay: liposome co-sedimentation, immunoblot
Format: binding
Settings: PC/PE liposomes with 7% phosphoinositide; 25 mM Tris-HCl pH 7.5, room temperature

CCCCCCCC/C=C\CCCCCCCC(=O)OC[C@H](COP(=O)(O)O[C@@H]1[C@H](O)[C@H](O)[C@@H](O)[C@H](O)[C@H]1O)OC(=O)CCCCCCC/C=C\CCCCCCCC [PI, 1,2-dioleoyl-sn-glycero-3-phospho-(1′-myo-inositol)]
liposome co-sedimentation, immunoblot: a low amount of PATL2 protein was found in the liposome membrane fraction
